From patent US9029389B2 (Institut Pasteur Korea, priority 2011, dated 2015)

Key:
Human 5-lipoxygenase = molecular target: T1, Human 5-lipoxygenase (Homo sapiens, UniProt P09917); assay: Activity of compounds against 5-LO enzyme (LTB4 measurement and/or fluorescence method); type: biochemical; conditions: for inhibition at 10 µM: 5-LO, single concentration of 10 uM in duplicate; for IC50: 6 or 11 point dose response in duplicate
T1 construct: purchased Cayman 60402; host or cells: insect cells
T1 sequence (P09917 1-674): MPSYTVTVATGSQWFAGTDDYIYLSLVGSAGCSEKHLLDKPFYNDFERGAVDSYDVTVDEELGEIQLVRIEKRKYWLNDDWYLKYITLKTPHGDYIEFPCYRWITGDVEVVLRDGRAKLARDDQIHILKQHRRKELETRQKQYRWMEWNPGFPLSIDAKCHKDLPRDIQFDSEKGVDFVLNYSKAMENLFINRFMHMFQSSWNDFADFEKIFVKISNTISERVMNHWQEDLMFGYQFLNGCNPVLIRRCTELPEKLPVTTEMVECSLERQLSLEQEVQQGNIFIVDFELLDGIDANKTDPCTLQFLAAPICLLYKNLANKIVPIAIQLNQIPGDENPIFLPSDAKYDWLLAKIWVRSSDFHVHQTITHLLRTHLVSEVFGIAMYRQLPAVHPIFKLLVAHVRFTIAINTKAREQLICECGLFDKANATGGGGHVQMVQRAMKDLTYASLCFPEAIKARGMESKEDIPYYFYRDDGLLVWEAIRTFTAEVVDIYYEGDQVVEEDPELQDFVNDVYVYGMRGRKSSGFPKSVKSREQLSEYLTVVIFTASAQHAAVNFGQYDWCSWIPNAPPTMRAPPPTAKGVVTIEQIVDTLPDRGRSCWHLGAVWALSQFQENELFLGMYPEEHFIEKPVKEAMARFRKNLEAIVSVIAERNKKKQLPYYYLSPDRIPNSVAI
Outline: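 Two read-outs: LTB4 measured by EIA and/or LC/MS/MS with LTB4-d4 standard after 15 min RT compound preincubation with insect-cell 5-LO and a 5 min 37 °C reaction on 3 uM arachidonic acid (0.1 mM ATP, pH 7.4). The room-temperature fluorescence format used 20 uM H2DCFDA, 100 uM ATP, 3 uM arachidonic acid, 5 min; IC50 from 6/11-point curves.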

inhibition at 10 µM (Human 5-lipoxygenase) [%] | melting point | IC50 (Human 5-lipoxygenase) [nM] | SMILES
< 40 | 138.1 to 138.7 °C | – | CCc1nc2ccc(Cl)cn2c1C(=O)NCc1ccc(N2CCN(Cc3ccc(OC(F)(F)F)cc3)CC2)cc1 [compound 156, 6-Chloro-2-ethyl-N-(4-(4-(4-(trifluoromethoxy)benzyl)piperazin-1-yl)benzyl)imidazo[1,2-a]pyridine-3-carboxamide]
> 69 | 141 to 142 °C | 1000 to 20000 | CCc1nc2cc(Cl)ccn2c1C(=O)NCc1ccc(N2CCN(Cc3ccc(F)cc3)CC2)cc1 [compound 126, 7-Chloro-2-ethyl-N-(4-(4-(4-fluorobenzyl)piperazin-1-yl)benzyl)imidazo[1,2-a]pyridine-3-carboxamide]
< 40 | 129 to 130 °C | – | CCc1nc2ccc(Cl)cn2c1C(=O)NCCc1ccc(OC)cc1 [compound 136, 6-Chloro-2-ethyl-N-(4-methoxyphenethyl)imidazo[1,2-a]pyridine-3-carboxamide]
> 69 | 127 to 128 °C | – | CCc1nc2ccc(Cl)cn2c1COc1ccc(OC(F)(F)F)cc1 [compound 143, 6-Chloro-2-ethyl-3-((4-(trifluoromethoxy)phenoxy)methyl)imidazo[1,2-a]pyridine]
40 to 69 | 157 to 158 °C | 1000 to 20000 | CCc1nc2ccc(Cl)cn2c1C(=O)NC1CCN(Cc2ccc(OC(F)(F)F)cc2)CC1 [compound 309, 6-Chloro-2-ethyl-N-(1-(4-(trifluoromethoxy)benzyl)piperidin-4-yl)imidazo[1,2-a]pyridine-3-carboxamide]
> 69 | 105.6 °C | < 1000 | CCc1nc2c(F)cccn2c1C(=O)NCc1ccc(Oc2ccc(OC(F)(F)F)cc2)cc1 [compound 224, 2-Ethyl-8-fluoro-N-(4-(4-(trifluoromethoxy)phenoxy)benzyl)imidazo[1,2-a]pyridine-3-carboxamide]
40 to 69 | 238 to 239.2 °C | – | CCCC(=O)NCc1ccc(N2CCN(c3ccc(CNC(=O)c4c(CC)nc5cc(Cl)ccn45)cc3)CC2)cc1 [compound 125, N-(4-(4-(4-(Butyramidomethyl)phenyl)piperazin-1-yl)benzyl)-7-chloro-2-ethylimidazo[1,2-a]pyridine-3-carboxamide]
< 40 | 200.6 °C | – | CCc1nc2c(C(F)(F)F)cccn2c1C(=O)NCc1ccc(N2CCOCC2)cc1 [compound 274, 2-Ethyl-N-(4-morpholinobenzyl)-8-(trifluoromethyl)imidazo[1,2-a]pyridine-3-carboxamide]
40 to 69 | 216.3 to 217 °C | – | CCc1nc2cc(Cl)ccn2c1C(=O)NCc1ccc(N2CCN(c3ccc(OC(F)(F)F)cc3)CC2)cc1 [compound 159, 7-Chloro-2-ethyl-N-(4-(4-(4-(trifluoromethoxy)phenyl)piperazin-1-yl)benzyl)imidazo[1,2-a]pyridine-3-carboxamide]
< 40 | 152.9 °C | – | CCc1nc2ccc(Br)cn2c1C(=O)NCc1ccc(Oc2ccc(OC(F)(F)F)cc2)cc1 [compound 226, 6-Bromo-2-ethyl-N-(4-(4-(trifluoromethoxy)phenoxy)benzyl)imidazo[1,2-a]pyridine-3-carboxamide]
– | 167.5 °C | < 1000 | CCc1nc2cc(Cl)ccn2c1COc1ccc(N2CCN(c3ccc(F)cc3)CC2)cc1 [compound 400, 7-chloro-2-ethyl-3-((4-(4-(4-fluorophenyl)piperazin-1-yl)phenoxy)methyl)imidazo[1,2-a]pyridine]
< 40 | 141.7 °C | – | CCc1nc2ccc(Cl)cn2c1C(=O)NCc1ccc(N2CCC3CCCCC3C2)cc1 (centres unmarked) [compound 221, 6-Chloro-2-ethyl-N-(4-(octahydroisoquinolin-2(1H)-yl)benzyl)imidazo[1,2-a]pyridine-3-carboxamide]
> 69 | 138 to 139 °C | 1000 to 20000 | CCc1nc2cc(Cl)ccn2c1C(=O)NCc1ccc(N2CCC(Oc3ccc(F)cc3)CC2)cc1 [compound 70, 7-Chloro-2-ethyl-N-(4-(4-(4-fluorophenoxy)piperidin-1-yl)benzyl)imidazo[1,2-a]pyridine-3-carboxamide]
> 69 | 141 to 142 °C | < 1000 | CCc1nc2cc(Cl)ccn2c1C(=O)NCc1ccc(Oc2ccc(OC(F)(F)F)cc2)cc1 [compound 128, 7-Chloro-2-ethyl-N-(4-(4-(trifluoromethoxy)phenoxy)benzyl)imidazo[1,2-a]pyridine-3-carboxamide]
40 to 69 | > 177.7 °C (dec.) | – | CCc1nc2c(F)cccn2c1C(=O)NCc1ccc(N2CCC(c3ccc(OC(F)(F)F)cc3)CC2)cc1 [compound 373, 2-ethyl-8-fluoro-N-(4-(4-(4-(trifluoromethoxy)phenyl)piperidin-1-yl)benzyl)imidazo[1,2-a]pyridine-3-carboxamide]
< 40 | 195 °C | – | CCc1nc2cc(Cl)ccn2c1C(=O)NCc1ccc(N2CCOCC2)cc1 [compound 93, 7-Chloro-2-ethyl-N-(4-morpholinobenzyl)imidazo[1,2-a]pyridine-3-carboxamide]
40 to 69 | 197.9 °C | – | CCc1nc2ccc(Cl)cn2c1C(=O)NCc1ccc(N2CCC(C(F)(F)F)CC2)cc1 [compound 233, 6-Chloro-2-ethyl-N-(4-(4-(trifluoromethyl)piperidin-1-yl)benzyl)imidazo[1,2-a]pyridine-3-carboxamide]
< 40 | 176 to 177 °C | – | CCc1nc2ccc(Cl)cn2c1C(=O)NCc1ccc(N2CC(C)OC(C)C2)cc1 (centres unmarked) [compound 182, 6-Chloro-N-(4-(2,6-dimethylmorpholino)benzyl)-2-ethylimidazo[1,2-a]pyridine-3-carboxamide]
> 69 | 204.1 °C | 1000 to 20000 | CCc1nc2c(F)cccn2c1C(=O)NCc1ccc(N2CCN(c3ccc(F)cc3)CC2)cc1 [compound 223, 2-Ethyl-8-fluoro-N-(4-(4-(4-fluorophenyl)piperazin-1-yl)benzyl)imidazo[1,2-a]pyridine-3-carboxamide]
< 40 | 179 to 180 °C | – | CCc1nc2ccc(Cl)cn2c1C(=O)NCc1ccc(C(F)(F)F)cc1 [compound 135, 6-Chloro-2-ethyl-N-(4-(trifluoromethyl)benzyl)imidazo[1,2-a]pyridine-3-carboxamide]
– | 224.7 °C | < 1000 | CCc1nc2ccc(F)cn2c1C(=O)NC1CCN(c2ccc(Nc3ccccc3)cc2)C1 (centres unmarked) [compound 403, 2-Ethyl-6-fluoro-N-(1-(4-(phenylamino)phenyl)pyrrolidin-3-yl)imidazo[1,2-a]pyridine-3-carboxamide]
< 40 | > 220 °C | – | CCc1nc2cc(Cl)ccn2c1C(=O)NCc1nc2cc(-c3ccc(OC(F)(F)F)cc3)ccc2o1 [compound 370, 7-chloro-2-ethyl-N-((5-(4-(trifluoromethoxy)phenyl)benzo[d]oxazol-2-yl)methyl)imidazo[1,2-a]pyridine-3-carboxamide]
